In article PMC5469758, “Identification of an in vivo orally active dual-binding protein-protein interaction inhibitor targeting TNFα through combined in silico/in vitro/in vivo screening” (Scientific Reports, 2017):

Columns and labels:
[1] = system: human TNFα induced apoptosis on the L929 cell line; assay: Neutralization of human TNFα induced apoptosis in L929 cells (MTT); format: cell-based; conditions: L929 cells
Experimental: 80% confluent L929 cells were plated in flat bottom plates at 4 × 10^5 cells per well in 100 μl of DMEM medium containing 10% FBS, 2 mM L-Glutamine, 100 U/ml Penicillin − 100 μg/ml Streptomycin and incubated for one night at 37 °C, 5% CO2. TNFα or TNFβ (150 pg/ml), Actinomycin D (4 μg/ml) and the compounds at different concentrations (ranging from 100 μM to 0.8 μM) were mixed in 150 μl DMEM medium 1% FBS, 2 mM L-Glutamine, 100 U/ml Penicillin−100 μg/ml Streptomycin in U-bottom plates. After two hours incubation at 37 °C, 5% CO2, 100 μl of the mix was added to the plated cells and incubated at 37 °C, 5% CO2 for 24 hours. Supernatants were discarded and 100 μl of MTT at 0.5 mg/ml were added to wells. After two hours, supernatants were discarded and 200 μl of DMSO were then added. Plates were read at 570 nm with a spectrophotometer providing the optical density (OD) of each well. The percentage of neutralization of TNFα by a compound was calculated using equation 3:3 %Neutra=ODcompound−ODTNFα/ODcells−ODTNFα×100
An IC50 could be computed from the percentage of neutralization for each compound.

[2] = system: TNFα induced NF-κB activation in HEK cells; assay: HEK-Blue TNFα NF-κB secreted embryonic alkaline phosphatase reporter assay; format: cell-based, human; conditions: HEK cells
Experimental: 80% confluent HEK-Blue™ TNFα were plated in flat bottom plates at 5 × 10^4 per well in 100 μl of DMEM containing 2 mM L-Glutamine, 100 U/ml Penicillin − 100 μg/ml Streptomycin and incubated at 37 °C, 5% CO2. Serial dilutions of compounds (ranging from 100 μM to 0.8 μM) were mixed with 400 pg/ml of human TNFα in DMEM containing 2% of FBS, 2 mM L-Glutamine, 100 U/ml Penicillin−100 μg/ml Streptomycin in U-bottom plates. After two hours of incubation at 37 °C, 5% CO2, 100 μl of the mix was added to the plated cells and incubated 24 hours at 37 °C, 5% CO2. 20 μl of supernatants were incubated for 3 hours with 180 μl of QUANTI-Blue™ to reveal secretion of phosphatase alcaline and plates were read at 620 nm with a spectrophotometer providing the optical density (OD).

[3] = molecular target: TNFα; conditions: fluorescence binding assay; cited from earlier work
[4] = system: TNFα/TNFRI; parameters: method as in PMID 16284179; conditions: cited from earlier work
[5] = parameters: method as in PMID 25160057; conditions: cited from earlier work

**Q.** Which results are given for `Cc1cc2occ(CN(C)CCN(C)Cc3cn(-c4cccc(C(F)(F)F)c4)c4ccccc34)c(=O)c2cc1C` [SPD304]?
**A.** concentration above which no cells survived (cellular toxicity) [1]: more than 30 µM; concentration above which no cells survived (cellular toxicity) [2]: more than 10 µM; Kd [3]: 5.4 ± 0.2 µM; IC50 [4]: 22 µM; toxicity precluding in vivo use [5]: high toxicity
